# Where two headings read alike, the source gives them in different places.
# Experiments:
# III-B strain of HIV-1 = experiment: microbe, parasite or virus in culture; format: cell-based
# How it was run: (§1)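 C8166 cells (4×10^4/well) in RPMI 1640 with 10% calf serum, mixed with 5-fold compound dilutions, then given 10 CCID50 HIV-1 III-B and kept 5–7 days. Viability of infected and uninfected cells measured by MTT-formazan; duplicates on at least two occasions, averaged.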
# [1] = Toxicity in C8166 cells (MTT-Formazen); format: cell-based; details: human, Table 3
# How it was run: as §1
# HIV-1 [2] = experiment: Inhibition of HIV-1 in MT4 cells; format: cell-based; details: Human immunodeficiency virus 1, MT4; Table 6; mean of two or more repeat experiments; read-out: HIV1 MT4: EC50 for inhibition of HIV-1 in MT4 cells
# Description: (§2) Cells were infected with HIV-1 as previously described [Balzarini et al. AIDS (1991), 5, 21–28]. Briefly, 5×10^5 cells per milliliter were infected with HIV-1 or HIV-2 at 100 CCID50 (50% cell culture infective dose) per milliliter of cell suspension. Then 100 μL of the infected cell suspension was transferred to microtiter plate wells and mixed with 100 μL of the appropriate dilutions of the test compounds. After 4 days giant cell formation was recorded microscopically in the HIV-infected cell cultures [CEM], and after 5 days the number of viable cells was determined by trypan blue staining of the HIV-infected cell cultures [MT4].
# (§3) The data columns are, in order: • HIV1 MT4: EC50 in μM for inhibition of HIV-1 in MT4 cells. • HIV2 MT4: EC50 in μM for inhibition of HIV-2 in MT4 cells. • CC50 MT4: CC50 in μM for toxicity to MT-4 cells. • HIV1 CEM: EC50 in μM for inhibition of HIV-1 in CEM cells. • HIV2 CEM: EC50 in μM for inhibition of HIV-2 in CEM cells. • HIV2 CEM-TK-: EC50 in μM for inhibition of HIV-2 in CEM/TK^− cells. • CC50 CEM: CC50 in μM for toxicity to CEM cells. • EC50 MSV: EC50 in μM for inhibition of MSV • MCC MSV: Minimum cytotoxic concentration in MSV assay
# HIV-2 [3] = experiment: Inhibition of HIV-2 in MT4 cells; format: cell-based; details: Human immunodeficiency virus 2, MT4, read-out: HIV2 MT4: EC50 for inhibition of HIV-2 in MT4 cells
# Description: as §2, §3
# Toxicity to MT-4 cells = format: cell-based, human; details: human, mock-infected MT-4 cells; Table 6; mean of two or more repeat experiments; read-out: CC50 MT4: CC50 for toxicity to MT-4 cells
# Description: as §2, §3
# HIV-1 [4] = experiment: microbe, parasite or virus in culture; details: Human immunodeficiency virus 1, CCRF-CEM
# How it was run: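 Infection used 100 CCID50 per mL on 5×10^5 cells/mL, followed by exposure to serial compound dilutions. Read-out: microscopic giant cell scoring after 4 days (CEM); trypan blue viable cell count after 5 days (MT-4).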
# HIV-2 [5] = experiment: Inhibition of HIV-2 in CEM cells (giant cell formation); format: cell-based; details: Human immunodeficiency virus 2, CCRF-CEM, read-out: HIV2 CEM: EC50 for inhibition of HIV-2 in CEM cells
# How it was run: (§4)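 Giant cell formation, recorded under the microscope on day 4, served as the end point for CEM cells, while MT-4 viability was determined by trypan blue exclusion on day 5. Cell suspensions (5×10^5/mL) received virus at 100 CCID50/mL before compound addition.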
# HIV-2 [6] = experiment: Inhibition of HIV-2 in CEM/TK- cells; format: cell-based; details: Human immunodeficiency virus 2, CEM-TK(-)
# How it was run: as §4
# Toxicity to CEM cells = format: cell-based, human; details: human, mock-infected CEM cells; Table 6; mean of two or more repeat experiments
# HIV RT = HIV RT (Human immunodeficiency virus type 1 group M subtype B, UniProt P03366); experiment: Inhibition of HIV reverse transcriptase; format: biochemical; details: Table 4
# hog liver esterase = experiment: Incubation with hog liver esterase; format: in vitro ADME; details: 1 mM, 37° C., Tris-HCl buffer containing 5 mM MgCl2
# Description: This metabolites co-eluted with the predominant metabolite (X) that was found in the cell extracts after incubation of the intact cells with [^3H] 324. metabolite X corresponds to a compound of formula (10), wherein Y is oxygen, X^1 is NH, X^2 is oxygen, B is thymine, R^1 is Me, R^2 is hydrogen.
# [7] = system: Moloney Sarcoma Virus [MSV]; experiment: MSV-induced tumour formation and survival in NMRI mice; format: in vivo; details: MSV infected mice
# Description: Drug doses are 50[low ] or 200 [high] mg/kg/day given i.p. for 4 days starting 1 hour before MSV inoculation.
# In Vivo Testing Inhibitory Effects of Test Compounds on the Initiation of MSV-Induced Tumour Formation in NRMI Mice and on the Survival of MSV Innoculated NMRI Mice.
# Mice infected with Moloney Sarcoma Virus [MSV] were treated daily with either placebo, or d4T [at one of two doses] or with compound 324 at one of the same [equi-molar] doses.
# Two- to three-day old NMRI mice (weighing—2 gram) were innoculated subcutaneously (s.c.) in the left hind leg with 50 μl MSV (100 foci forming units, as measured by in vitro determination of the virus-induced transformation of murine C3H embryo fibroblast cells). At 4 to 5 days post-infection, tumours develop and rapidly increase in volume upon further aging of the mice. Within 10 to 12 days post-infection, mice (then weighing—5 to 6 gram) die from the viral infection. Drug treatment started 1 hour prior to infection of the virus, and further compound administration was given daily i.p. for an additional 3 days. The mean day of tumour initiation (±standard deviation) and the mean day of survival of the mice (±standard deviation) was calculated and statistical significance of the average delay of tumour formation and the mean day of survival in the treated groups versus the untreated (control) group was assessed by two-tailed student's t-test.
structure (smiles),measurement,setting,value
"COC(=O)C(C)NP(=O)(OCC1C=CC(n2cc(C)c(=O)[nH]c2=O)O1)Oc1ccccc1 (centres unmarked) [Compound 324, 2′,3′-dideoxy-2′,3′-didehydrothymidine 5′-(phenyl N-methoxyalaninyl) phosphoramidate]",Selectivity CC50/EC50 × 10^3,"III-B strain of HIV-1; HIV1 in C8166 cells, Table 3",46.9 × 10^3
same,EC50,"III-B strain of HIV-1; Human immunodeficiency virus 1, C8166, Table 4, read-out: EC50 8166 HIV1",3.2 nM
same,EC50,"III-B strain of HIV-1; Human immunodeficiency virus 1, HIV1 in C8166 cells, Table 3, read-out: Activity EC50",3.2 nM
same,CC50,[1],150000 nM
same,EC50,HIV-1 [2],81 nM
same,EC50,HIV-2 [3],53 nM
same,CC50 at 5 days,Toxicity to MT-4 cells,> 100000 nM
same,EC50,HIV-1 [4]; read-out: EC50 CEM HIV1,180 nM
same,EC50,HIV-1 [4]; read-out: HIV1 CEM: EC50 for inhibition of HIV-1 in CEM cells,75 nM
same,EC50,HIV-2 [5],75 nM
same,EC50,HIV-2 [6]; read-out: EC50 CEM TK− HIV2,80 nM
same,EC50,HIV-2 [6]; read-out: HIV2 CEM-TK-: EC50 for inhibition of HIV-2 in CEM/TK^− cells,75 nM
same,CC50,Toxicity to CEM cells,100000 nM
same,EC50,HIV RT,50000 nM
same,metabolite formation with hog liver esterase,hog liver esterase,time-dependent formation of a metabolite was observed
same,effect on tumour appearance,[7]; high-dose (200 mg/kg/day i.p. for 4 days),significant effect
same,effect on tumour appearance (first disease parameter),[7]; low dose (50 mg/kg/day i.p. for 4 days),an effect
